The results in this text go back to paper PMC5834442, “Identifying inhibitors of the Leishmania inositol phosphorylceramide synthase with antiprotozoal activity using a yeast-based assay and ultra-high throughput screening platform” (Scientific Reports, 2018).

The structures appear in SMILES notation. “Also recorded” adds a separate entry of the source. Where two headings read alike, the source gives them in different places.

Assay [1] relates to L. donovani (MHOM/SD/62/1S-CL2D, LdBOB) axenic amastigotes. Nature of the assay: Leishmania donovani axenic amastigote dose response assay (resazurin). The class given is cell-based. In general terms: Alamar Blue is a resazurin reagent that responds to reducing activity.
Assay [2] relates to THP-1 macrophages. Nature of the assay: Host cell toxicity in the intramacrophage assay. The assay is classed as cell-based, human.
For assay [3], the system named is HepG2 cells. Nature of the assay: Mammalian cell cytotoxicity assay (CellTiter-Glo). The class given is cell-based, human.
Assay [4] concerns intra-macrophage Leishmania donovani amastigotes. The assay is described as follows: Intramacrophage Leishmania donovani assay (high content imaging). The class given is cell-based. The conditions noted are these: for IC50: Leishmania donovani.
For assay [5], the target named is T1, LmjFIPCS (Leishmania major, UniProt E9AFX2).
T1 construct: The complete open reading frames of LmjFIPCS and AUR1p was amplified from genomic DNA; made in house
Nature of the assay: Biochemical LmjFIPCS assay with CHAPS-washed microsomal membranes. The conditions noted are these: for IC50: read-out: pIC50 against LmjFIPCS in vitro (converted). The method, then: Utilizing the availability of an in-house designed and validated biochemical assay for LmjFIPCS[19],[22], following re-synthesis in the free-base form (Aptuit, Verona, Italy) the two benzazepane hits were biochemically analyzed in a dose response assay (8 compound concentrations between 100 μM and 46 nM; Fig. 5). […].
Microsomal material was prepared and CHAPS washed from α ade^−.lys^−.leu^−.Δaur1^−.pESC-LEU_ LmjFIPCS as previously described[19],[22]. Briefly, each compound at the desired concentration was incubated, in at least triplicate, in 96-well plates (Corning) in phosphate buffer (71.4 mM, pH 7.0) with PI (100 µM, final concentration, Avanti Polar Lipids), CHAPS (600 µM, Sigma-Aldrich) and CHAPS-washed microsomal membranes (0.6 U enzyme per reaction) for 15 minutes at 30 °C. NBD-C6-ceramide (5 µM; ThermoFisher) was added, final volume of 40 µl per well, and the plates incubated at 30 °C for a further 25 minutes. […]. Analyses were carried out using GraphPad Prism 7.

For assay [6], the system named is L. major Δlcb2 mutant. The assay is described as follows: L. major axenic cell assay (alamarBlue), sphingolipid mutant Δlcb2. The conditions noted are these: Leishmania major, 72 h, read-out: pIC50 against L. major Δlcb2 mutant (converted). The class given is cell-based. The source says: (§1) However, whilst compound 1 was antiprotozoal and a potent IPC synthase inhibitor, it was unclear whether the mode of action was on-target. To analyze this further, the in-house availability of a sphingolipid mutant L. major (Δlcb2) was exploited. This line[24] lacks serine palmitoyltransferase activity, and whilst LmjFIPCS is still present it is redundant in the absence of in situ substrate. […] […]. Therefore, it is likely that off-target activity has a role in the antileishmanial activity of this benzazepane.
(§2) From a previously described protocol, L. major (MHOM/IL/81/Friedlin, wild type and ΔLCB2 mutant)[24] were added to 96-well plates (Corning) at 1 × 10^4 ml^−1 in growth media with appropriate concentrations of compounds and controls (vehicle and assay media alone, with the robustness of the platform indicated by Z’ values > 0.5)[29] in 100 µl. […]. Analyses were carried out using GraphPad Prism 7.

Assay [7] concerns L. major (MHOM/IL/81/Friedlin) wild type. The assay is described as follows: L. major axenic cell assay (alamarBlue), wild type. The class given is cell-based. The conditions noted are these: Leishmania major; −logIC50 M; 72 hours; read-out: pIC50 against wild type Leishmania major (converted).
Description: as §1, §2

For assay [8], the target named is T2, in cellulo LmjFIPCS (Leishmania major, UniProt E9AFX2).
T2 construct: endogenous in cells; host or cells: L. major (MHOM/IL/81/Friedlin) Δlcb2 mutant
Nature of the assay: In cellulo IPC synthase assay (BODIPY FL C5-ceramide incorporation into IPC, HPTLC). The assay is classed as cell-based. The conditions noted are these: L. major ΔLCB2, 10 μM of compound, compared with compound 1. The method, then: Figure 7 In cellulo activity against LmjFIPCS. […] L. major ΔLCB2 treated with 10 μM of compound prior to metabolic labelling with BODIPY FL C5-ceramide. Inhibition of the incorporation of label into IPC was measured following HPTLC in comparison with a control (vehicle treated). […]. P = 0.006 in students’ t-test indicating the difference is significant (**≤ 0.01).
The L. major Δlcb2 mutant, maintained in Schneider’s media (Sigma-Aldrich) with 15% sera (ThermoFisher), were washed and 200 µl, at 1 × 10^7 ml^−1, incubated in serum free media for 60 minutes at 26 °C before the addition of 10 µM of the compounds, in at least triplicate, and further incubation for 18 hours. Subsequently, the reaction was initiated by the addition of BODIPY FL C5-ceramide complexed to BSA (1.25 µl of 0.5 mM, ThermoFisher). Following further incubation at 26 °C for 1 hour, the lipids were extracted by phase separation in chloroform:methanol:water (10:10:3, 200 µl) and fractionated on HTPLC plates, as previously. The fluorescence was read at Ex475/Em520 using a Fuji FLA-3000 plate reader and AIDA Image Analyser software (version 3.52).

Where [9] appears, read: −logIC50 M, 72 hours, read-out: pIC50 against axenic L. donovani amastigotes (converted).
Where [10] appears, read: −logIC50 M, biochemical assay, at least 3 independent experiments.
[11] abbreviates: −logIC50 M, L. donovani infected THP-1 macrophages, 96 hours, read-out: pIC50 against intra-macrophage L. donovani amastigotes (converted).

T1 sequence (E9AFX2 whole entry): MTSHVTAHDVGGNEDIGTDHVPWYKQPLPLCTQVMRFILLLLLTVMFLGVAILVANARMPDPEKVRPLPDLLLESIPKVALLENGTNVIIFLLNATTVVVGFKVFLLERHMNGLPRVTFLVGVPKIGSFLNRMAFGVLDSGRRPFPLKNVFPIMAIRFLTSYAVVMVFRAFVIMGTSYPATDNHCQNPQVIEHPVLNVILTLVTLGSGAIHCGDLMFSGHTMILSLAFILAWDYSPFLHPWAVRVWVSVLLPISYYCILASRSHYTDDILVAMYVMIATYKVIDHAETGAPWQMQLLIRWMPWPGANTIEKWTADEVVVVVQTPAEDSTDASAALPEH
T2 sequence (E9AFX2 whole entry): as above

Consider `CC(C)CCN1C(=O)C(N)C(=O)N(CC2CCCCC2)c2ccccc21` (stereo not drawn) [VMTA/1987/36/2], for which the IC50 was 2 µM in assay [1] (-logIC50 mol against L. donovani (LdBOB) axenic amastigotes, read-out: pIC50 Axenic (converted)); > 50.1 µM in assay [2] (Homo sapiens, THP-1 host cells in intramacrophage assay, read-out: pIC50 THP-1 (converted)); 81.3 µM in assay [3] (Homo sapiens, -logIC50 mol against HepG2, read-out: PIC50 HepG2 (converted)); 8.13 µM in assay [4] (intramacrophage L. donovani amastigotes, read-out: pIC50 InMac (converted)). The “pSI v THP-1” value in assay [2] (selectivity, pIC50 InMac minus pIC50 THP-1) is reported as 0.79. In addition, the “pSI v HepG2” value in assay [3] (selectivity, pIC50 axenic minus pIC50 HepG2) was determined as 1.61.

With `O=S(=O)(c1ccc2c(c1)CCN(Cc1ccc(F)cc1)CC2)n1cccc1` [compound 1], the IC50 is 0.0251 µM in assay [1] (setting [9]); 0.158 µM in assay [5] (setting [10]); 3.16 µM in assay [6]; 3.16 µM in assay [4] (setting [11]); 3.16 µM in assay [7].

`O=S(=O)(c1ccc2c(c1)CCN(Cc1cccnc1)CC2)n1ccc2c(F)cccc21` [compound 2]: the IC50 is 0.398 µM in assay [1] (setting [9]), 6.31 µM in assay [5] (setting [10]) and 2 µM in assay [4] (setting [11]).

Turning to `O=S(=O)(c1ccc2c(c1)CCN(Cc1cccnc1)CC2)n1cccc1` [compound 6], the “pIC50 against LmjFIPCS in vitro” value in assay [5] (setting [10]) is recorded as “lost activity”.

`O=S(=O)(c1ccc2c(c1)CCN(Cc1ccc(F)cc1)CC2)n1ccc2c(F)cccc21` [compound 7]: the “in cellulo inhibition of IPC synthase activity (incorporation of BODIPY FL C5-ceramide into IPC)” value in assay [8] is “considerably greater in cellulo inhibition of IPC synthase activity than compound 1; also recorded: greater activity against in cellulo LmjFIPCS than compound 1”. Further, the “maximal inhibition of LmjFIPCS in vitro” value in assay [5] (even at higher concentrations) is reported as ≤ 60%. Moreover, the IC50 in assay [5] (setting [10]) is 0.0631 µM; in assay [6], > 10 µM; in assay [7], 3.16 µM. Also, the “pIC50 against intra-macrophage L. donovani amastigotes” value in assay [4] (−logIC50 M, L. donovani infected THP-1 macrophages, 96 hours) was “lost”.
